These results are taken from US6720343B2, “Oxadiazole derivatives having anticancer effects” (Shionogi & Co., Ltd., priority 2002, dated 2004).

Where two headings read alike, the source gives them in different places.

One data set concerns the target T1, MMP-2 (Homo sapiens, UniProt P08253).
T1 construct: purchased Calbiochem-Novabiochem International, Inc
T1 sequence (P08253 110-660): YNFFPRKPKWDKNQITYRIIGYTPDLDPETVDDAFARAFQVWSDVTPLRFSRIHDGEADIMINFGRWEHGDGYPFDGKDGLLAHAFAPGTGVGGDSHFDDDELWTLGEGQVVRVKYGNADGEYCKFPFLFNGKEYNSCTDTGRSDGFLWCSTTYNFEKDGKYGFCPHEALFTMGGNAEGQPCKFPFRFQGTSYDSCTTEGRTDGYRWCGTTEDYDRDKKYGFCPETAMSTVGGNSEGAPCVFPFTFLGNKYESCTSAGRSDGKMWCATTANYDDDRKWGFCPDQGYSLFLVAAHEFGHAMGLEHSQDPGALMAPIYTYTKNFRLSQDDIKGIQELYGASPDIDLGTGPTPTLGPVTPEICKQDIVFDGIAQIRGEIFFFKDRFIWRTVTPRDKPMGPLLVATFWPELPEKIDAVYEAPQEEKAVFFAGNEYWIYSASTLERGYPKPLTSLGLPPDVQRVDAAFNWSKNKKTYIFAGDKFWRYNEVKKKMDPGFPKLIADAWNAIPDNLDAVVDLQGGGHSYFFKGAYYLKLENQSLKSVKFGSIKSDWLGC
The experiment in a line: Assay for inhibitory activities on MMPs (fluorogenic peptide substrate), MMP-2. Format: biochemical. How it is done: MMP-2 was purchased from Calbiochem-Novabiochem International, Inc.
(§1) The enzymatic activity on MMPs was analyzed by the method described in “C. […] The substrate (MOCAc-Pro-Leu-Gly-Leu-A2Pr(DNP)-Ala-Arg-NH2) was purchased from Peptide Institute, Inc., Osaka, Japan.
(§2) The measurement of the inhibitory activities (IC50) was carried out by the following four methods;
(§3) A) Reaction with substrate, enzyme (MMPs) and inhibitor
(§4) B) Reaction with substrate and inhibitor, without enzyme
(§5) C) Reaction with substrate and enzyme (MMPs), without inhibitor
(§6) D) Reaction with substrate only
(§7) IC50 values were calculated by using the following formula and each fluorescence values of above four methods (A to D).
(§8) % inhibition={1−(A−B)/(C−D)}×100

A further data set has as its target T2, MMP-9 (Homo sapiens, UniProt P14780).
T2 construct: purchased Calbiochem-Novabiochem International, Inc
The data set is described as follows: Assay for inhibitory activities on MMPs (fluorogenic peptide substrate), MMP-9. In kind it is biochemical. The procedure: MMP-9 was purchased from Calbiochem-Novabiochem International, Inc.
as §1, §2, §3, §4, §5, §6, §7, §8

The target in the next data set is T3, MMP-8 Catalytic domain (Homo sapiens, UniProt P22894).
T3 construct: MMP-8 Catalytic domain (^99Phe˜^262Gly); His-tag; Enterokinase digestion site; made in house; host or cells: E. coli
The experiment in a line: Assay for inhibitory activities on MMPs (fluorogenic peptide substrate), MMP-8. Format: biochemical. How it is done: The DNA fragment was cloned into an E. coli expression vector, pTrc99A containing the His-tag sequence and Enterokinase digestion site. The MMP-8 Catalytic domain expression was induced by the addition of IPTG (Isopropyl-β-D-thiogalactopyranoside), and the cell pellet containing MMP-8 Catalytic domain was obtained. […] Isolation of MMP-8 from the cell pellet was used by general techniques. After the cell pellet was dissolved in 6M urea, the solution was loaded onto a metal-chelating matrix. Subsequently, dialysis was used to remove urea and refold of MMP=8. And then active MMP-8 was obtained.
as §1, §2, §3, §4, §5, §6, §7, §8

For data set [1], the system named is Lewis mouse lung carcinoma cells. The experiment in a line: Antitumor efficacy using artificial lung metastasis of Lewis mouse lung carcinoma. Format: in vivo, BDF1 mice. The following applies: for inhibition in vivo at 20 mg/kg / inhibition in vivo at 200 mg/kg / inhibition in vivo at 2 mg/kg: Mus musculus, po, 336 h, read-out: Inhibition (%). The procedure: Lewis mouse lung carcinoma cells (4×10^5 cells) were inoculated into the tail vein of BDF1 mice. […] The doses of the compounds were 20 and 200 mg/kg or 2 and 20 mg/kg. At 14 day after tumor inoculation, tumor nodules formed in the lung of the treated mice were counted and the antitumor efficacy was evaluated.

Setting [2] is: experiment 3-2, 20 mg/kg oral, five times, lung tumor nodules at day 14.
The mark [3] stands for this setting: experiment 3-2, 200 mg/kg oral, five times, lung tumor nodules at day 14.
[4] abbreviates: experiment 3-1, 20 mg/kg oral, five times, lung tumor nodules at day 14.
Setting [5] is: experiment 3-1, 200 mg/kg oral, five times, lung tumor nodules at day 14.
Setting [6] is: experiment 3-3, 2 mg/kg oral, five times, lung tumor nodules at day 14.
[7] abbreviates: experiment 3-3, 20 mg/kg oral, five times, lung tumor nodules at day 14.

T2 sequence (P14780 94-707): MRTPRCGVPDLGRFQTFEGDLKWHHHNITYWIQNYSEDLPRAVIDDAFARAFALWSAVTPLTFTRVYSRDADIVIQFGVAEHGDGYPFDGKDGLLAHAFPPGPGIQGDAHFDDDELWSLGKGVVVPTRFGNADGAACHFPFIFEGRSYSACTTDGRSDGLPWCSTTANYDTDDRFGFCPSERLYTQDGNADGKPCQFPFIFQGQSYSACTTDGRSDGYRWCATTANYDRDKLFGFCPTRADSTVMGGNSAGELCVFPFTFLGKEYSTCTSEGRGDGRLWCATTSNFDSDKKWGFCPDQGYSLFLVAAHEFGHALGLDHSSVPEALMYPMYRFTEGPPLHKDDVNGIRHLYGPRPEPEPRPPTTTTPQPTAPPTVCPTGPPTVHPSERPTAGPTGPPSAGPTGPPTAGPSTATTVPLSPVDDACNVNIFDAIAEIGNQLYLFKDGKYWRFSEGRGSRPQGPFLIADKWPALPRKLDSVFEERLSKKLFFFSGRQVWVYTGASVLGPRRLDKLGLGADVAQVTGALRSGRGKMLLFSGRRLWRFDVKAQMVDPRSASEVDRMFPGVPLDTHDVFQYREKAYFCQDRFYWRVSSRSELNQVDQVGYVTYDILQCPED
T3 sequence (P22894 99-262): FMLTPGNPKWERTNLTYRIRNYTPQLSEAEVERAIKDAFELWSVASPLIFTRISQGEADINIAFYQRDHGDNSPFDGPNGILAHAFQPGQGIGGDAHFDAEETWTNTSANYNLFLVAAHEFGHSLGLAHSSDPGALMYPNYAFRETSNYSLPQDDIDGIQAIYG

A word on the IC50: it is the concentration that gives 50% inhibition. As for `O=C(O)[C@@H](Cc1c[nH]c2ccccc12)NS(=O)(=O)c1ccc(-c2nc(-c3ccccc3)no2)cc1` [Compound A-9], the IC50 against MMP-2 is 0.018 µM; on MMP-9 it was 0.566 µM; at MMP-8 Catalytic domain, > 1 µM. Further, the inhibition in vivo at 20 mg/kg in data set [1] (setting [2]) was determined as 30%. For the same molecule, the inhibition in vivo at 200 mg/kg in data set [1] (setting [3]) is 51%. Besides, the “Number of colonies (Mean ± SD)” value came to 38.7 ± 5.8 in data set [1] (setting [2]) and 27.0 ± 9.7 in data set [1] (setting [3]).
Take `Cc1ccc(-c2noc(-c3ccc(S(=O)(=O)N[C@@H](Cc4ccccc4)C(=O)O)cc3)n2)cc1` [Compound A-8]: the figures for the IC50 against MMP-2, against MMP-9 and at MMP-8 Catalytic domain were 0.051 µM, 0.479 µM and > 1 µM, respectively. Also, in data set [1], the inhibition in vivo at 20 mg/kg is 56%. In addition, in data set [1], the inhibition in vivo at 200 mg/kg was 63%. The figures for the “Number of colonies (Mean ± SD)” value in data set [1] (setting [4]) and in data set [1] (setting [5]) were 18.8 ± 11.4 and 15.7 ± 5.5, respectively.
For orientation: melting point means the temperature of the solid-liquid transition. The molecule `O=C(O)[C@@H](Cc1ccccc1)NS(=O)(=O)c1ccc(-c2nc(-c3ccccc3)no2)cc1` [Compound A-2] showed a melting point of 221 to 222 °C. Besides, at MMP-2, inhibition was half-maximal at 0.053 µM (IC50). Further, the IC50 at MMP-9 is > 1 µM. For the same molecule, the IC50 at MMP-8 Catalytic domain is > 1 µM.
With `C[C@@H](NS(=O)(=O)c1ccc(-c2nc(-c3ccc(F)cc3)no2)cc1)C(=O)O` [Compound A-6], the IC50 on MMP-2 was 0.05 µM; on MMP-9, > 1 µM; at MMP-8 Catalytic domain, > 1 µM. The inhibition in vivo at 20 mg/kg in data set [1] (setting [2]) was found to be 26%. Further, in data set [1] (setting [3]), the inhibition in vivo at 200 mg/kg was 57%. For the same molecule, the “Number of colonies (Mean ± SD)” value in data set [1] (setting [2]) worked out at 40.8 ± 13.5; in data set [1] (setting [3]), 24.0 ± 9.7.
Turning to `O=C(O)[C@@H](Cc1c[nH]c2ccccc12)NSOOc1ccc(-c2nnn(-c3ccccc3)n2)cc1` [Compound B-1, reference compound], the inhibition in vivo at 20 mg/kg in data set [1] (setting [4]) is 38%; in data set [1] (setting [2]), 37%; in data set [1] (setting [7]), 39%. Also, the inhibition in vivo at 200 mg/kg in data set [1] (setting [5]) was 46%; in data set [1] (setting [3]), 31%. In addition, the inhibition in vivo at 2 mg/kg in data set [1] (setting [6]) was found to be 14%. The “Number of colonies (Mean ± SD)” value was found to be 26.5 ± 19.5 in data set [1] (setting [4]); 23.0 ± 7.6 in data set [1] (setting [5]); 34.8 ± 14.5 in data set [1] (setting [2]); 38.3 ± 20.7 in data set [1] (setting [3]); 53.5 ± 18.5 in data set [1] (setting [6]); 37.5 ± 13.0 in data set [1] (setting [7]).
As for `C[C@@H](NS(=O)(=O)c1ccc(-c2nc(-c3ccccc3)no2)cc1)C(=O)O` [Compound A-10], the IC50 on MMP-2 is 0.065 µM; against MMP-9, > 1 µM; against MMP-8 Catalytic domain, > 1 µM. Moreover, in data set [1] (setting [4]), the inhibition in vivo at 20 mg/kg worked out at 43%. Also, in data set [1] (setting [5]), the inhibition in vivo at 200 mg/kg came out at 41%. In addition, the “Number of colonies (Mean ± SD)” value in data set [1] (setting [4]) was found to be 24.5 ± 7.8; in data set [1] (setting [5]), 25.2 ± 17.0.
Take `Cc1ccc(-c2noc(-c3ccc(S(=O)(=O)N[C@@H](C(=O)O)C(C)C)cc3)n2)s1` [Compound A-93]: the IC50 stood at 0.006 µM against MMP-2, 0.047 µM against MMP-9 and 0.088 µM against MMP-8 Catalytic domain. The inhibition in vivo at 2 mg/kg in data set [1] amounted to 41%. Besides, the inhibition in vivo at 20 mg/kg in data set [1] was 50%. Besides, the “Number of colonies (Mean ± SD)” value in data set [1] (setting [6]) is recorded as 36.3 ± 9.2; in data set [1] (setting [7]), 30.8 ± 10.8.
On to `CC(C)[C@@H](NS(=O)(=O)c1ccc(-c2nc(-c3cccs3)no2)cc1)C(=O)O` [Compound A-5], for which the values for the IC50 on MMP-2, on MMP-9 and against MMP-8 Catalytic domain were 0.03 µM, > 1 µM and 0.61 µM, respectively. Moreover, the inhibition in vivo at 20 mg/kg in data set [1] (setting [2]) worked out at 24%. The inhibition in vivo at 200 mg/kg in data set [1] (setting [3]) came out at 37%. In addition, the “Number of colonies (Mean ± SD)” value in data set [1] (setting [2]) turned out to be 41.8 ± 22.5; in data set [1] (setting [3]), 34.8 ± 12.1.
Turning to `CCc1ccc(-c2noc(-c3ccc(S(=O)(=O)N[C@H](Cc4ccccc4)C(=O)O)cc3)n2)cc1` [Compound A-7], the IC50 is 0.008 µM against MMP-2, 0.078 µM at MMP-9 and > 1 µM against MMP-8 Catalytic domain. Also, the inhibition in vivo at 20 mg/kg in data set [1] (setting [4]) came out at 56%. In addition, the inhibition in vivo at 200 mg/kg in data set [1] (setting [5]) was determined as 49%. Besides, the “Number of colonies (Mean ± SD)” value in data set [1] (setting [4]) worked out at 18.8 ± 6.9; in data set [1] (setting [5]), 21.7 ± 9.6.
`C[C@@H](NS(=O)(=O)c1ccc(-c2nc(-c3ccc(Cl)cc3)no2)cc1)C(=O)O` [Compound A-4]: the IC50 was 0.026 µM against MMP-2, 0.19 µM against MMP-9 and > 1 µM against MMP-8 Catalytic domain. Further, the inhibition in vivo at 20 mg/kg in data set [1] was 55%. In addition, in data set [1], the inhibition in vivo at 200 mg/kg amounted to 46%. Also, the results for the “Number of colonies (Mean ± SD)” value in data set [1] (setting [4]) and in data set [1] (setting [5]) were 19.2 ± 9.4 and 23.3 ± 12.8, respectively.
With `Cc1ccc(-c2noc(-c3ccc(S(=O)(=O)N[C@H](C)C(=O)O)cc3)n2)cc1` [Compound A-1], the melting point lay within 200 to 203 °C. The molecule further registered an IC50 at MMP-2 of 0.03 µM. The same molecule returned an IC50 on MMP-9 of 0.47 µM. The IC50 against MMP-8 Catalytic domain was > 1 µM. Moreover, in data set [1] (setting [4]), the inhibition in vivo at 20 mg/kg was determined as 53% and the “Number of colonies (Mean ± SD)” value is 20.2 ± 13.3. Besides, in data set [1] (setting [5]), the inhibition in vivo at 200 mg/kg came out at 69% and the “Number of colonies (Mean ± SD)” value is 13.3 ± 11.8.
As to `Cc1ccc(-c2noc(-c3ccc(S(=O)(=O)N[C@H](Cc4ccccc4)C(=O)O)cc3)n2)cc1` [Compound A-3], the IC50 at MMP-2 was found to be 0.015 µM; at MMP-9, 0.384 µM; on MMP-8 Catalytic domain, 0.775 µM.
